Measurements as given in the supplement of paper PMC10307832.

Tests used:
Experiment in all cases: relative viability (nuclei count vs DMSO), 5 days (fraction); higher = more cells survive
[1] = compound: NC1(c2ccc(-c3nc4ccn5c(=O)[nH]nc5c4cc3-c3ccccc3)cc2)CCC1 [MK-2206] + Cc1cc(Nc2cc(N3CCN(C)CC3)nc(Sc3ccc(NC(=O)C4CC4)cc3)n2)n[nH]1 [Tozasertib] (partner 0.1 µM)
Summary of the method: (§1)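 One day after seeding in 1536-well plates, lung cancer cell lines were dosed by pin tool. Dosing was either single-drug or a fixed anchor-drug dose plus five library-drug doses (not always all listed) in √10 steps. After 5 days, nuclei were stained in one fix-and-stain step and counted on 4× images, and relative viability is the nuclei count of treated wells over that of vehicle wells, given as the median of duplicate plates.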

[2] = compound: CS(=O)(=O)N1CCN(Cc2cc3nc(-c4cccc5[nH]ncc45)nc(N4CCOCC4)c3s2)CC1 [Pictilisib] + Cc1nc(NC(=O)N2CCC[C@H]2C(N)=O)sc1-c1ccnc(C(C)(C)C(F)(F)F)c1 [Alpelisib] (partner 2 µM)
Summary of the method: as §1

[3] = compound: NC1(c2ccc(-c3nc4ccn5c(=O)[nH]nc5c4cc3-c3ccccc3)cc2)CCC1 [MK-2206] + C[C@@H](Oc1cc(-c2cnn(C3CCNCC3)c2)cnc1N)c1c(Cl)ccc(F)c1Cl [Crizotinib] (partner 1 µM)
Summary of the method: as §1

[4] = compound: CS(=O)(=O)N1CCN(Cc2cc3nc(-c4cccc5[nH]ncc45)nc(N4CCOCC4)c3s2)CC1 [Pictilisib] + NC(=O)Nc1cc(-c2cccc(F)c2)sc1C(=O)N[C@H]1CCCNC1 [AZD7762] (partner 0.2 µM)
Summary of the method: as §1

[5] = compound: CS(=O)(=O)N1CCN(Cc2cc3nc(-c4cccc5[nH]ncc45)nc(N4CCOCC4)c3s2)CC1 [Pictilisib] + O=C(CCCCCCC(=O)Nc1ccccc1)NO [Vorinostat] (partner 1 µM)
Summary of the method: as §1

Cell Line | relative viability ([1]; first compound 0.01 µM) | relative viability ([1]; first compound 0.3162 µM) | relative viability ([1]; first compound 1 µM) | relative viability ([2]; first compound 0.02 µM) | relative viability ([2]; first compound 0.06325 µM) | relative viability ([2]; first compound 0.6325 µM) | relative viability ([2]; first compound 2 µM) | relative viability ([3]; first compound 0.01 µM) | relative viability ([3]; first compound 0.03162 µM) | relative viability ([3]; first compound 0.3162 µM) | relative viability ([3]; first compound 1 µM) | relative viability ([4]; first compound 0.02 µM) | relative viability ([4]; first compound 0.06325 µM) | relative viability ([4]; first compound 0.6325 µM) | relative viability ([4]; first compound 2 µM) | relative viability ([5]; first compound 0.02 µM) | relative viability ([5]; first compound 0.06325 µM) | relative viability ([5]; first compound 0.6325 µM) | relative viability ([5]; first compound 2 µM) | relative viability ([1]; first compound 0.03162 µM)
HCC-78 | 1.52 | 0.38 | 0.365 | 0.332 | 0.279 | 0.289 | 0.19 | 0.348 | 0.33 | 0.289 | 0.286 | 0.569 | 0.559 | 0.395 | 0.233 | 0.393 | 0.384 | 0.322 | 0.257 | 
IA-LM |  |  |  | 0.732 | 0.982 | 0.749 | 0.418 |  | 0.867 | 0.807 | 0.819 |  |  |  |  | 0.917 | 0.97 | 0.881 | 0.373 | 
NCI-H520 | 0.405 | 0.254 | 0.367 | 0.996 | 0.815 | 0.724 | 0.267 | 0.833 | 0.741 | 0.42 | 0.421 |  |  |  |  | 0.794 | 0.73 | 0.353 | 0.203 | 0.543
NCI-H522 | 0.593 | 0.62 | 0.513 |  |  |  |  |  |  |  |  | 0.967 | 0.865 | 0.673 | 0.571 | 0.857 | 0.866 | 0.757 | 0.608 | 0.518
NCI-H661 | 0.377 | 0.373 | 0.364 | 0.598 | 0.794 | 0.579 | 0.373 | 0.952 | 0.911 | 0.809 | 0.961 |  |  |  |  | 0.857 | 0.826 | 0.936 | 0.745 | 0.354
NCI-H1299 |  |  |  | 1.06 | 1.07 | 1.08 | 1.04 | 0.957 | 0.963 | 1.06 | 0.94 |  |  |  |  |  |  |  |  | 
NCI-H1395 | 0.825 | 0.683 | 0.631 | 1.11 | 1.03 | 0.855 | 0.531 |  |  |  |  | 0.44 | 0.416 | 0.375 | 0.338 | 1.08 | 0.727 | 0.498 | 0.369 | 0.693
NCI-H1563 |  |  |  | 1.06 | 0.851 | 0.724 | 0.591 | 0.771 | 0.828 | 0.75 | 0.604 |  |  |  |  |  |  |  |  | 
NCI-H1623 | 0.458 | 0.456 | 0.44 |  |  |  |  |  |  |  |  |  |  |  |  |  |  |  |  | 0.394
NCI-H1648 | 0.508 | 0.657 | 0.504 |  |  |  |  |  |  |  |  | 0.777 | 0.735 | 0.56 | 0.316 | 0.393 | 0.378 | 0.239 | 0.19 | 0.689
NCI-H1650 | 0.364 | 0.408 | 0.346 |  |  |  |  | 0.97 | 1.04 | 1.04 | 0.751 |  |  |  |  | 0.566 | 0.666 | 0.819 | 0.358 | 0.377
NCI-H1703 |  |  |  | 0.435 | 0.314 | 0.227 | 0.195 | 0.809 | 0.658 | 0.302 | 0.511 | 0.148 | 0.175 | 0.104 | 0.119 |  |  |  |  | 
NCI-H1792 |  |  |  | 0.72 | 0.715 | 0.657 | 0.36 | 0.968 | 1 | 0.999 | 0.944 | 0.631 | 0.575 | 0.339 | 0.109 |  |  |  |  | 
NCI-H1793 | 0.349 | 0.302 | 0.284 | 0.729 | 0.516 | 0.566 | 0.307 |  |  |  |  | 0.449 | 0.404 | 0.226 | 0.142 | 0.712 | 0.724 | 0.379 | 0.243 | 0.345
NCI-H2009 | 0.657 | 0.677 | 0.639 | 1.19 | 1.17 | 1.13 | 1.07 | 1.04 | 1.05 | 1.12 | 1.04 |  |  |  |  | 0.766 | 0.723 | 0.645 | 0.5 | 0.674
NCI-H2023 | 0.345 | 0.239 | 0.197 | 0.546 | 0.488 | 0.445 | 0.32 | 0.614 | 0.686 | 0.481 | 0.387 |  |  |  |  | 0.685 | 0.662 | 0.35 | 0.178 | 0.347
NCI-H2228 | 0.388 | 0.221 | 0.11 | 0.674 | 0.665 | 0.507 | 0.35 | 0.445 | 0.348 | 0.343 | 0.339 |  |  |  |  | 0.524 | 0.72 | 0.434 | 0.253 | 0.235
NCI-H2342 | 0.608 | 0.452 | 0.402 |  |  |  |  |  |  |  |  | 0.444 | 0.515 | 0.34 | 0.414 | 0.672 | 0.814 | 0.695 | 0.529 | 0.535
SK-LU-1 | 0.212 | 0.376 | 0.291 | 1.16 | 1.29 | 0.895 | 0.713 | 0.941 | 0.912 | 0.964 | 0.877 |  |  |  |  | 0.857 | 0.818 | 0.618 | 0.511 | 0.334
SK-MES-1 | 0.813 | 0.885 | 0.794 | 0.856 | 0.804 | 0.634 | 0.45 | 0.953 | 1.02 | 1.04 | 0.816 |  |  |  |  | 1.11 | 1.12 | 0.856 | 0.511 | 0.847
SW 900 | 0.561 | 0.569 | 0.698 |  |  |  |  |  |  |  |  | 0.747 | 0.623 | 0.431 | 0.352 | 0.695 | 0.579 | 0.382 | 0.231 | 0.531
SW 1573 | 0.242 | 0.175 | 0.127 | 0.891 | 0.766 | 0.658 | 0.532 | 0.814 | 0.762 | 0.493 | 0.748 |  |  |  |  | 0.767 | 0.733 | 0.35 | 0.217 | 0.152
